One series relates to thrombin. To be noted: cited from earlier work.
Series [1] can be described thus: in vitro. Conditions: human, CC50 HLT.
The nature of series [2]: in vitro. To be noted: African green monkey.
The next series concerns VeroE6 cells. To be noted: for CC50: read-out: CC50 Vero E6, absence of virus.
For a further series, the system named is HLT cells. To be noted: for CC50: read-out: CC50 HLT, absence of virus.
The next series concerns COVID-19 patients. Conditions: cited from earlier work.
Series [3] concerns IL-6 and CXCL10 expression. The series is described as follows: Immunomodulatory capacity: IL-6 and CXCL10 in LPS + IFN-γ stimulated HLT myeloid cells. The class given is cell-based, human. Conditions: 20μM, LPS 50 ng/ml + IFN-γ 100 ng/ml, 20h. The protocol: HLT cells were cultured in a round-bottom 96-well plate containing 20 μM of cepharanthine, ergoloid, ciclesonide, hydroxychloroquine, ivermectin, or camostat mesylate alone or in combination with the stimuli LPS (50 ng/ml) and IFN-γ (100 ng/ml). For each patient, a negative control, cells treated with only medium, and a positive control, cells incubated in the presence of LPS and IFN-γ, were included. Immediately, brefeldin A (BD Biosciences) and monensin (BD Biosciences) were added to cells and cultured overnight at 37°C in 5% CO2. Next day, cellular suspensions were stained with the following antibodies: anti-CD11b (FITC, BioLegend), anti-CD69 (PE-CF594, BD Biosciences), anti-CD14 (APC-H7, BD Biosciences), anti-EpCAM (APC, BioLegend), anti-CD3 (BV650, BD Biosciences), anti-CD45 (BV605, BioLegend), and anti-HLA-DR (BV421, BioLegend). Cells were subsequently fixed and permeabilized using the Cytofix/Cytoperm kit (BD Biosciences) and intracellularly stained with anti-IL-6 (PE-Cy7, BioLegend), and anti-CXCL10 (PE, BioLegend). Cell viability was determined using an AQUA viability dye for flow cytometry (LIVE/DEAD fixable AQUA, Invitrogen). After fixation with PBS 2% PFA, cells were acquired in an LSR Fortessa (BD Biosciences), and data were analyzed using the FlowJo v10.6.1 software (TreeStar).

The next series concerns ACE2 expression. The series is described as follows: Modulation of ACE2 expression in enriched AT-II cells of HLT (flow cytometry). It is filed as cell-based, human. Conditions: 20h; for ACE2 expression after anti-inflammatory drugs (in words): 100μM to 0.8μM; for ACE2 expression in enriched AT-II cells after immune stimuli (in words): IL-1β 10 ng/ml, IL-10 and GM-CSF 100 ng/ml, IFN 100 U/ml. The protocol:
VeroE6 and lung cells were incubated with five-fold serial dilutions of selected anti-inflammatory compounds (ranging from 100μM to 0.8μM) for 20h. […] For determination of ACE2 expression, the following surface staining antibodies were used: primary goat anti-ACE2 (R&D Systems), anti-CD45 (AF700, BioLegend), anti-EpCAM (APC, BioLegend), and anti-HLA-DR (BV421, BioLegend). For ACE2 detection, cells were then stained with secondary donkey anti-goat IgG (PE, R&D Systems) for 30 min at 4°C. A Fluorescent Minus One control (FMO) without primary anti-ACE2 antibody was used as a control. Cell viability was determined using an AQUA viability dye for flow cytometry (LIVE/DEAD fixable AQUA, Invitrogen). After fixation with PBS 2% PFA, cells were acquired in an LSR Fortessa (BD Biosciences) and analyzed using the FlowJo v10.6.1 software (TreeStar).

Series [4] has as its system DNA-dependent DNA polymerases of some DNA viruses. To be noted: cited from earlier work.
The next series has as its system SARS-CoV-2. To be noted: cited from earlier work.
In series [5] the test system is SARS-CoV-2 clinical isolate. It is filed as cell-based.
Where [6] appears, read: 10µM, ref Hempel et al., Chemical Science 2021.

Counter-ions that a name gives are not always drawn.

The term IC50 denotes the midpoint of a concentration-inhibition curve.

As for `O=c1c(O)c(-c2cc(O)c(O)c(O)c2)oc2cc(O)cc(O)c12` [Myricetin], the IC50 with thrombin was 56 µM. Moreover, the CC50 in the series “in vitro [1]” (absence of virus) is more than 100 µM; in “in vitro [2]” (CC50 Vero E6, absence of virus) it was more than 100 µM.
Regarding Ivermectin, the CC50 in the series on VeroE6 cells is 20.2 µM; with HLT cells it was approximately 100 µM. The “proportion of PCR-positive patients (in words)” value in the series on COVID-19 patients (seven days after treatment) was “failed to show a reduction”. In addition, the “expression of cytokines in the HLT inflammation model (in words)” value in [3] is listed as “did not affect the expression of cytokines”.
In the case of `C[C@]12C=CC(=O)C=C1CC[C@@H]1[C@@H]2C(=O)C[C@@]2(C)[C@H]1CC[C@]2(O)C(=O)CO` [Prednisone], the CC50 in the series “in vitro [1]” (absence of virus) is more than 100 µM; in “in vitro [2]” (CC50 Vero E6, absence of virus), more than 100 µM. In addition, the “ACE2 expression after anti-inflammatory drugs (in words)” value in the series with ACE2 expression is “no effect on ACE2 expression”.
Consider `Nc1ncnc2c1ncn2[C@@H]1O[C@H](CO)[C@@H](O)[C@@H]1O` [Vidarabine], for which the CC50 was more than 100 µM in “in vitro [1]” (absence of virus) and more than 100 µM in “in vitro [2]” (CC50 Vero E6, absence of virus). In addition, the “inhibition of viral DNA polymerases relative to those of host cells” value in [4] is recorded as “Purine nucleoside analogue ^80. Competitively inhibits DNA-dependent DNA polymerases of some DNA viruses approximately 40 times more than those of host cells ^80”.
Consider `CN(C)C(=O)COC(=O)Cc1ccc(OC(=O)c2ccc(NC(=N)N)cc2)cc1` [Camostat, Camostat mesylate], for which the CC50 in the series “in vitro [1]” is more than 100 µM. For the same molecule, the “activity in precision-cut lung slices (in words)” value in the series on SARS-CoV-2 (0.5µM, ref Hoffmann et al, EBiomedicine 2021) is recorded as “non-active”. Also, in the series on SARS-CoV-2 (setting [6]), the “inhibition, donor 1” value is given as 40% and the “inhibition, donor 2” value is on record as 60%. Also, the “inhibition in precision-cut lung slices” value in the series on SARS-CoV-2 (10µM, ref Hoffmann et al, EBiomedicine 2021) was “approx. 40%”. Moreover, the “clinical benefit (in words)” value in the series on COVID-19 patients (COVID-19 patients receiving camostat within the first 48h of admission) is “no significant benefit”. In addition, in series [3], the “expression of CXCL10 in CD11b+CD14- myeloid cells (in words)” value is recorded as “significantly reduced” and the “expression of IL-6 in CD11b+CD14+ myeloid cells (in words)” value is “significantly reduced”. In the series “in vitro [2]” (CC50 Vero E6), this molecule came in with a CC50 of more than 100 µM.
Regarding `CC(C)Cc1ccc(C(C)C(=O)O)cc1` (centres unmarked) [Ibuprofen], the CC50 is more than 100 µM in the series “in vitro [1]” (absence of virus) and more than 100 µM in the series “in vitro [2]” (CC50 Vero E6, absence of virus). Also, in the series on ACE2 expression, the “ACE2 expression after anti-inflammatory drugs (in words)” value is reported as “no effect on ACE2 expression”.
With IL-1β, in the series on ACE2 expression, the “ACE2 expression in enriched AT-II cells after immune stimuli (in words)” value (“ACE2 expression in enriched AT-II cells” below) is reported as “decreased the fraction of AT-II cells expressing ACE2”.
As for Ergoloid mesylates, the CC50 in the series with VeroE6 cells is 18.7 µM; in the series with HLT cells, approximately 100 µM. The “cell toxicity in HLT cells” value in the series on HLT cells (20 μM, 48h) is listed as more than 60%. Besides, in [3], the “expression of cytokines in CD11b+CD14+ myeloid cells (in words)” value is “significantly reduced the expression of cytokines”.
As for `CCCCCCCCCCCC(=O)O` [Lauric acid], the CC50 in the series with VeroE6 cells and in the series with HLT cells was more than 100 µM throughout.
Turning to `C[C@]12CCC(=O)C=C1CC[C@@H]1[C@@H]2[C@@H](O)C[C@@]2(C)[C@H]1CC[C@]2(O)C(=O)CO` [Cortisol], the CC50 in the series “in vitro [1]” (absence of virus) is more than 100 µM; in the series “in vitro [2]” (CC50 Vero E6, absence of virus) it was more than 100 µM. The “ACE2 expression after anti-inflammatory drugs (in words)” value with ACE2 expression is reported as “no effect on ACE2 expression”.
Turning to `NC(=O)[C@@H]1CCCN1C(=O)[C@H](Cc1c[nH]cn1)NC(=O)[C@@H]1CCC(=O)N1` [Protilerin], the CC50 in the series with VeroE6 cells and with HLT cells was more than 100 µM each time.
Take `CC(C)C(=O)OCC(=O)[C@@]12O[C@H](C3CCCCC3)O[C@@H]1C[C@H]1[C@@H]3CCC4=CC(=O)C=C[C@]4(C)[C@H]3[C@@H](O)C[C@@]12C` [Ciclesonide]: the CC50 in the series “in vitro [1]” (absence of virus) was more than 100 µM; in the series “in vitro [2]” (CC50 Vero E6, absence of virus), more than 100 µM. Further, the “expression of CXCL10 in CD11b+CD14- myeloid cells (in words)” value in series [3] was “induced CXCL10 secretion”.
Consider `COc1ccc2cc1Oc1ccc(cc1)C[C@H]1c3c(cc4c(c3Oc3cc5c(cc3OC)CCN(C)[C@@H]5C2)OCO4)CCN1C` [Cepharanthine], for which the CC50 was 22.4 µM in the series with VeroE6 cells; 13.8 µM in “in vitro [1]” (absence of virus); 16.1 µM in the series on HLT cells; 22.3 µM in “in vitro [2]” (CC50 Vero E6, absence of virus). Also, the “expression of IL-6 in CD11b+CD14+ myeloid cells (in words)” value in series [3] was “reduced IL-6 production”.
Take `CCN(CCO)CCCC(C)Nc1ccnc2cc(Cl)ccc12` (centres unmarked) [Hydroxychloroquine]: the “cytotoxicity in VeroE6 (in words)” value in the series on VeroE6 cells (up to 100μM) was “no apparent cytotoxicity”. The CC50 is more than 100 µM in “in vitro [1]” (absence of virus) and more than 100 µM in the series “in vitro [2]” (CC50 Vero E6, absence of virus). For the same molecule, the “cytotoxicity in HLT (in words)” value in the series on HLT cells (up to 100μM) is reported as “no apparent cytotoxicity”. Moreover, the “effectiveness as a treatment for COVID-19 (in words)” value with COVID-19 patients (clinical trials) is reported as “failed to show effectiveness”. The “viral replication of replication-competent SARS-CoV-2 in HLT cells (in words)” value in [5] is reported as “effective”.
`C[C@@H]1C[C@H]2[C@@H]3CCC4=CC(=O)C=C[C@]4(C)[C@@]3(F)[C@@H](O)C[C@]2(C)[C@@]1(O)C(=O)CO` [Dexamethasone]: the CC50 is more than 100 µM in the series “in vitro [1]” (absence of virus) and more than 100 µM in “in vitro [2]” (CC50 Vero E6, absence of virus). In the series with COVID-19 patients (patients receiving invasive mechanical ventilation), the “28-day mortality (in words)” value is reported as “decreased”.
Consider GM-CSF, for which, in the series on ACE2 expression, the “ACE2 expression in enriched AT-II cells” value was “did not impact ACE2 protein production”.

B1: IL-10 (protein, UniProt P22301 19-178, looked up)
Interleukin-10: SPGQGTQSENSCTHFPGNLPNMLRDLRDAFSRVKTFFQMKDQLDNLLLKESLLEDFKGYLGCQALSEMIQFYLEEVMPQAENQDPDIKAHVNSLGENLKTLRLRLRRCHRFLPCENKSKAVEQVKNAFNKLQEKGIYKAMSEFDIFINYIEAYMTMKIRN
With B1, the “ACE2 expression in enriched AT-II cells” value in the series with ACE2 expression is “did not impact ACE2 protein production”.

Values taken from paper PMC8791477, “Evaluation of SARS-CoV-2 entry, inflammation and new therapeutics in human lung tissue cells” (PLoS Pathogens, 2022).
